Tests used:
NLuc = target: T1, NLuc (Oplophorus gracilirostris, UniProt Q9GV45, A31E/A60N/A81I/F95D/I117V/K70R/L54V/L99Q/M102K/N193R/P142E/Q151K/Q38R/Q45L/V71I/Y165I); type: biochemical; details: - ATP
T1 construct: His tag (inferred from IMAC purification); made in house; host or cells: E. coli
In short: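 Luminescence was read 10 min after Nano-Glo reagent addition. Enzyme was 1 nM NLuc in PBS/0.05% IGEPAL buffer, with or without ATP.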

P. pyralis FLuc = P. pyralis FLuc (Photinus pyralis, UniProt P08659); experiment: FLuc enzymatic luminescence assay, P. pyralis FLuc; type: biochemical; details: FLuc enzymatic assay, Clade S follow-up; for IC50: read-out: IC50 or SDR50 (mM) FLuc E
Sequence of P. pyralis FLuc (P08659 whole entry): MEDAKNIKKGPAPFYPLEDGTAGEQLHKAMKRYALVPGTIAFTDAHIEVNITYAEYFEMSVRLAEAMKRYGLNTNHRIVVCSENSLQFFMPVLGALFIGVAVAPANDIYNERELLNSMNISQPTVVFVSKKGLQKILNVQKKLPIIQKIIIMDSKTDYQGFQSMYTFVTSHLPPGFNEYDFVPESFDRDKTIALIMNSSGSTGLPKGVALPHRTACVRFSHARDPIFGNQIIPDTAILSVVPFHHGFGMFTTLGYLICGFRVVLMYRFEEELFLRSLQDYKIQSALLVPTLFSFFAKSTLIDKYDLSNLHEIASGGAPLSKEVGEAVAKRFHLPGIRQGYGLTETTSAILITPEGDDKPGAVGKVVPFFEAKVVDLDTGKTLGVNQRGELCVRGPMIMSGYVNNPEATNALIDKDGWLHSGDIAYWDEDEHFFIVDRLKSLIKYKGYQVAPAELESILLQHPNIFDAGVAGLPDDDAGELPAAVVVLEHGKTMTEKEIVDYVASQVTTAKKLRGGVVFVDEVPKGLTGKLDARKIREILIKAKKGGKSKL
In short: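 Runs with and without 10 µM ATP: compounds were pre-incubated with FLuc (1–10 nM, PBS pH 7.4) at ambient temperature, light-protected, for 30–60 min. Luminescence was imaged 5 min after adding 10 µM D-luciferin (final). Inhibition was scaled between DMSO neutral and no-enzyme controls.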

[1] = target: FLuc-C-HiBiT (firefly luciferase) (Photinus pyralis, UniProt P08659, form not given/L550V); experiment: SDR assay, FLuc-C-HiBiT; details: SDR max. response, clade S
Sequence of FLuc-C-HiBiT (firefly luciferase) (P08659 2-550 L550V, form open): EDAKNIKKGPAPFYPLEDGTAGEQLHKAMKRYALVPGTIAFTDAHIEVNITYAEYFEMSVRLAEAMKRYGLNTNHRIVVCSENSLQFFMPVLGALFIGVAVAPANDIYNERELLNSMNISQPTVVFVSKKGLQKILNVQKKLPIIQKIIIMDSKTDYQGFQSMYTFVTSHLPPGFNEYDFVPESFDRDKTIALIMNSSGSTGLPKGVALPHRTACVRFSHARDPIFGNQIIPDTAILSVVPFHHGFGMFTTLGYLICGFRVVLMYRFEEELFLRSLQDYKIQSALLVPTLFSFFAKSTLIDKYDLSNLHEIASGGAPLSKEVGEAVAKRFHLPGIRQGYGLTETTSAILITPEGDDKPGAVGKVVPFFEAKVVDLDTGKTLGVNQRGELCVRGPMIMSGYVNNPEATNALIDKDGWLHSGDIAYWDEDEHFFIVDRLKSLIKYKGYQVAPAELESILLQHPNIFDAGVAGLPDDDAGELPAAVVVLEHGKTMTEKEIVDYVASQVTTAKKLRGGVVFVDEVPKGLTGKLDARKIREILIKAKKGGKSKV

[2] = target: FLuc-C-NLuc (firefly luciferase) (Photinus pyralis, UniProt P08659, form not given/L550V); experiment: SDR assay, FLuc-C-NLuc; details: - ATP
Sequence of FLuc-C-NLuc (firefly luciferase) (P08659 2-550 L550V, form open): as above

T1 sequence (Q9GV45 other isoform, or with tags, fused parts or gaps with the stated changes): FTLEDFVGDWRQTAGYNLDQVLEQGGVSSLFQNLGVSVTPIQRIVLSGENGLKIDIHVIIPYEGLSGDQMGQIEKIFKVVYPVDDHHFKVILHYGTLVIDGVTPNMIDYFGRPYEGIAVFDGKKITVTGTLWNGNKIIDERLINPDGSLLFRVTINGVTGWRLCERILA

SMILES	Efficacy (%) NLuc (- ATP) (NLuc) [%]	Efficacy (%) FLuc E (P. pyralis FLuc) [%]	pIC50 or pSDR50 FLuc E (P. pyralis FLuc)	IC50 (P. pyralis FLuc) [mM]	% Activity (max response, + ATP) [1] [%]	% Activity (max response, - ATP) [1] [%]	Efficacy (%) FLuc-C-NLuc SDR (-ATP) [2] [%]
Cc1ccc(C2Cn3cnc(C(=O)N4CCC(C(=O)NCc5ccc(F)cc5F)CC4)c3CO2)cc1 (centres unmarked) [NCGC00449890-01]	0.00	-41.53	5.01	0.00988	88.58	0.00	0.00
Cc1ccc(C2Cn3cnc(C(=O)N4CCC(C(=O)NCc5ccccc5Cl)CC4)c3CO2)cc1 (centres unmarked) [NCGC00449891-01]	0.00	-50.12	4.96	0.0111	113.62	0.00	0.00
Cc1ccc(C2Cn3cnc(C(=O)N4CCC(C(=O)NCc5cccc(Cl)c5)CC4)c3CO2)cc1 (centres unmarked) [NCGC00449892-01]	0.00	-30.33	4.91	0.0124	61.41	14.19	0.00
Cc1ccc(C2Cn3cnc(C(=O)N4CCC(C(=O)NC(C)c5ccccc5)CC4)c3CO2)cc1 (centres unmarked) [NCGC00449895-01]	-8.50	-61.76	4.96	0.0111	100.93	0.00	0.00
Cc1ccc(C2Cn3cnc(C(=O)N4CCC(C(=O)NCCc5ccccc5)CC4)c3CO2)cc1 (centres unmarked) [NCGC00449896-01]	10.33	-32.41	4.91	0.0124	46.98	0.00	0.00
Cc1ccc(C2Cn3cnc(C(=O)N4CCC(C(=O)NCCCc5ccccc5)CC4)c3CO2)cc1 (centres unmarked) [NCGC00449897-01]	0.00	-69.05	5.01	0.00988	151.61	-10.39	0.00
Cc1ccc(C2Cn3cnc(C(=O)N4CCC(C(=O)NCc5ccccc5C)CC4)c3CO2)cc1 (centres unmarked) [NCGC00449898-01]	0.00	-44.97	4.96	0.0111	110.64	0.00	0.00
Cc1ccc(C2Cn3cnc(C(=O)N4CCC(C(=O)NCc5cccc(F)c5)CC4)c3CO2)cc1 (centres unmarked) [NCGC00449899-01]	0.00	-43.90	5.01	0.00988	60.19	0.00	0.00
Cc1ccc(C2Cn3cnc(C(=O)N4CCC(C(=O)NCc5cc(F)ccc5F)CC4)c3CO2)cc1 (centres unmarked) [NCGC00449900-01]	0.00	-40.44	4.96	0.0111	59.08	0.00	0.00
Cc1ccc(NC(=O)C2CCN(C(=O)c3ncn4c3COC(c3ccccc3)C4)CC2)cc1C (centres unmarked) [NCGC00449904-01]	0.00	-72.15	5.01	0.00988	306.70	0.00	0.00
CCc1cccc(NC(=O)C2CCN(C(=O)c3ncn4c3COC(c3ccccc3)C4)CC2)c1 (centres unmarked) [NCGC00449906-01]	0.00	-98.95	5.76	0.00176	357.78	0.00	0.00
CCc1ccc(NC(=O)C2CCN(C(=O)c3ncn4c3COC(c3ccccc3)C4)CC2)cc1 (centres unmarked) [NCGC00449907-01]	0.00	-99.55	5.16	0.00699	288.22	0.00	0.00
O=C(Nc1ccccc1)C1CCN(C(=O)c2ncn3c2COC(c2ccc(F)cc2)C3)CC1 (centres unmarked) [NCGC00449920-01]	0.00	-13.92	–	–	29.50	0.00	0.00

Source: PMC12064818, “A general assay platform to study protein pharmacology using ligand-dependent structural dynamics” (Nature Communications, 2025)
